For assay [1], the species on record is Mus musculus. As to the kind of experiment: Antiasthmatic activity in ovalbumin-sensitized BALB/c mouse allergy model assessed as reduction in occlusion of the airway diameter by mucus compound treated at 4 g through inhalation prior to ovalbumin challenge by hematoxylin eosin staining method relative to control. The format is functional.
The species named for assay [2] is Mus musculus. As to the kind of experiment: Antiasthmatic activity in ovalbumin-sensitized BALB/c mouse allergy model assessed as reduction in neutrophil count compound treated at 4 g through inhalation prior to ovalbumin challenge (reference value: 43.1 /mm3). The format is functional.
The species named for assay [3] is Mus musculus. As to the kind of experiment: Antiasthmatic activity in ovalbumin-sensitized BALB/c mouse allergy model assessed as reduction in spleen tissue aldehyde level compound treated at 4 g through inhalation prior to ovalbumin challenge. The format is functional, organism-based.
The species entered for assay [4] is Mus musculus. As to the kind of experiment: Antiasthmatic activity in ovalbumin-sensitized BALB/c mouse allergy model assessed as reduction in lung aldehyde level compound treated at 4 g through inhalation prior to ovalbumin challenge. The assay is classed as functional, organism-based.
For assay [5], the species on record is Mus musculus. As to the kind of experiment: Antiasthmatic activity in ovalbumin-sensitized BALB/c mouse allergy model assessed as reduction in BAL aldehyde level compound treated at 4 g through inhalation prior to ovalbumin challenge. The format is functional, organism-based.
For assay [6], the species on record is Mus musculus. The assay is described as follows: Antiasthmatic activity in ovalbumin-sensitized BALB/c mouse allergy model assessed as reduction in sub-epithelial fibrosis compound treated at 4 g through inhalation prior to ovalbumin challenge by hematoxylin eosin staining method relative to control. The format is functional. Set-up: scale not given: the % may be the effect or the level left.

For assay [7], the species on record is Mus musculus. The assay is described as follows: Antiasthmatic activity in ovalbumin-sensitized BALB/c mouse allergy model assessed as reduction in eosinophil count compound treated at 4 g through inhalation prior to ovalbumin challenge (reference value: 11 /mm3). The assay is classed as functional.
For assay [8], the species on record is Mus musculus. As to the kind of experiment: Antiasthmatic activity in ovalbumin-sensitized BALB/c mouse allergy model assessed as reduction in peribronchial inflammatory cell infiltration compound treated at 4 g through inhalation prior to ovalbumin challenge by hematoxylin eosin staining method relative to control. The format is functional. Set-up: scale not given: the % may be the effect or the level left.

For assay [9], the species on record is Mus musculus. As to the kind of experiment: Antiasthmatic activity in ovalbumin-sensitized BALB/c mouse allergy model assessed as reduction in epithelial cell mucus metaplasia compound treated at 4 g through inhalation prior to ovalbumin challenge by hematoxylin eosin staining method relative to control. The format is functional.
The species named for assay [10] is Mus musculus. The assay is described as follows: Antiasthmatic activity in ovalbumin-sensitized BALB/c mouse allergy model assessed as reduction in perivascular inflammatory cell infiltration compound treated at 4 g through inhalation prior to ovalbumin challenge by hematoxylin eosin staining method relative to control. The format is functional. Set-up: scale not given: the % may be the effect or the level left.

Activity calls are given as the source filed them. The rule behind the calls is not given here.

Turning to `C=C(C)[C@H]1CC=C(C)CC1` [D-LIMONENE], the “fold change (FC)” value in the assay listed under Mus musculus [1] was found to be 2; in the assay filed under Mus musculus [9] it was 5. The Activity in the assay listed under Mus musculus [2] was 29.8 /mm3; in the assay listed under Mus musculus [6] it was 20%; in the assay listed under Mus musculus [7], 12.6 /mm3; in the assay listed under Mus musculus [8], 40%; in the assay filed under Mus musculus [10], 40%. Also, the result in the assay listed under Mus musculus [3], in the assay listed under Mus musculus [4] and in the assay listed under Mus musculus [5] was Active.

The values above are taken from ChEMBL document CHEMBL3351985, “Prophylactic treatment of asthma by an ozone scavenger in a mouse model” (2015).
